We go through 9 compounds from US20240158446A1, “CYCLIC COMPOUND HAVING SELECTIVE INHIBITORY ACTION ON KRAS OVER HRAS AND NRAS” (CHUGAI SEIYAKU KABUSHIKI KAISHA, priority 2021, published 2024).

Assay [1] deals with GDP-bound HRAS wild-type protein (Homo sapiens, UniProt P01112). In words: Binding to HRAS by surface plasmon resonance (SPR), Single Cycle Kinetics. The following applies: for HRAS/KRAS (ratio of KD value for HRAS to KD value for KRAS): SPR, GDP-bound HRAS wild-type protein vs GDP-bound KRAS wild-type protein. In general terms: In SPR one partner is held on a chip, and binding of the other changes the refractive index at the surface.
GDP-bound HRAS wild-type protein, sequence (P01112 whole entry): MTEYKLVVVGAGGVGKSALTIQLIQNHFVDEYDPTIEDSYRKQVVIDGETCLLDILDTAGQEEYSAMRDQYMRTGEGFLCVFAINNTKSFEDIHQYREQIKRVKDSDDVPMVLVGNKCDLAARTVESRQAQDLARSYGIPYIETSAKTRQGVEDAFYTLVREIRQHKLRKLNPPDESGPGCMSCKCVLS

Assay [2] has as its target GDP-bound NRAS wild-type protein (Homo sapiens, UniProt P01111). In words: Binding to NRAS by surface plasmon resonance (SPR), Single Cycle Kinetics. The following applies: for NRAS/KRAS (ratio of KD value for NRAS to KD value for KRAS): SPR, GDP-bound NRAS wild-type protein vs GDP-bound KRAS wild-type protein.
For assay [3], the target named is GDP-bound KRAS wild-type protein (Homo sapiens, UniProt P01116). In words: Binding to KRAS by surface plasmon resonance (SPR), Single Cycle Kinetics. The following applies: GDP-bound KRAS wild-type protein, read-out: KRAS KD.
GDP-bound KRAS wild-type protein, sequence (P01116 whole entry): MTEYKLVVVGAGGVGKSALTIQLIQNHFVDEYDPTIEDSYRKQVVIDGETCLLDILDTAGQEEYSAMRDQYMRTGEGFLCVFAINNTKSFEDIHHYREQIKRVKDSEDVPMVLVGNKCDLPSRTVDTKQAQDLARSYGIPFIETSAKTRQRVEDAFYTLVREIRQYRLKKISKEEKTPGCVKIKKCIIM
[4] abbreviates: SPR Single Cycle Kinetics, 1:1 binding model.

Molecules are shown by their SMILES. Read-outs that look alike come from different tables or passages of the source. Where a SMILES comes first, the peptide text is derived from it. Bridges are numbered along the chain shown (N, C = ends). [ ]: non-standard residue; d: D form. The star is where a group is joined. hPhe(3-Cl-4-CF3) = N[C@@H](CCc1ccc(C(F)(F)F)c(Cl)c1)C(=O)O; NPrPhe(4-CF3) = CCCN[C@@H](Cc1ccc(C(F)(F)F)cc1)C(=O)O; NMeGly(cPent) = CN[C@H](C(=O)O)C1CCCC1; Pro(4,4-F2) = O=C(O)[C@@H]1CC(F)(F)CN1; Gly(cBu) = N[C@H](C(=O)O)C1CCC1; NMeD = CN[C@@H](CC(=O)O)C(=O)O; NMeL = CN[C@@H](CC(C)C)C(=O)O; Morpholide = C1CN(*)CCO1; Ac5c = NC1(C(=O)O)CCCC1; Aze = O=C(O)[C@@H]1CCN1; Ac4c = NC1(C(=O)O)CCC1; NEtG = CCNCC(=O)O; Sar = CNCC(=O)O

GDP-bound NRAS wild-type protein, sequence (P01111 whole entry): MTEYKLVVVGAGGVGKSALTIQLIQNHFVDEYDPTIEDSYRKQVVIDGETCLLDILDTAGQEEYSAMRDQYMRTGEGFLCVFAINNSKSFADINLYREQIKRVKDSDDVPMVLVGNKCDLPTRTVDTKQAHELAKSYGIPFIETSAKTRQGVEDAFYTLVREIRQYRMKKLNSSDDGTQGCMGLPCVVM

For orientation: Kd means the constant that tells how readily two partners part at equilibrium. For the compound `CCO[C@@H]1C[C@H]2C(=O)NC3(CCC3)C(=O)N(C)[C@@H](C3CCCC3)C(=O)N(C)[C@H](C(=O)N(C)C)CC(=O)N(C)[C@@H](CC)C(=O)N[C@@H]([C@@H](C)CC)C(=O)N(C)CC(=O)N(C)[C@H]3CCCCCN(C3=O)[C@@H](Cc3ccc(C(F)(F)F)cc3)C(=O)N(C)CC(=O)N[C@@H](CCc3cc(Cl)c(C(F)(F)F)c(Cl)c3)C(=O)N2C1` [PP0989], the “HRAS/KRAS (ratio of KD value for HRAS to KD value for KRAS)” value in assay [1] is “B (a compound having 3 or more and less than 10 is denoted as B)”. In assay [2], the “NRAS/KRAS (ratio of KD value for NRAS to KD value for KRAS)” value is “B (a compound having 3 or more and less than 10 is denoted as B)”. In addition, the Kd in assay [3] (SPR, Single Cycle Kinetics) turned out to be 1.3 nM.
Take `CCCN(C)C(=O)[C@@H]1CC(=O)N(C)[C@@H](CC)C(=O)N[C@@H]([C@@H](C)CC)C(=O)N(C)CC(=O)N(C)[C@H]2C/C=C\CCN(C2=O)[C@@H](Cc2ccc(C(F)(F)F)cc2)C(=O)N(C)CC(=O)N[C@@H](CCc2cc(F)c(C(F)(F)F)c(F)c2)C(=O)N2C[C@H](OCC3CC3)C[C@H]2C(=O)NC2(CCC2)C(=O)N(C)[C@@H](C2CCCC2)C(=O)N1C` [PP2913]: the “HRAS/KRAS (ratio of KD value with respect to GDP-bound HRAS wild-type protein to KD value with respect to KRAS)” value in assay [1] (SPR KD ratio HRAS/KRAS, class symbols) was “A (a compound having 10 or more and less than 20 is denoted as A)”. Further, in assay [2] (SPR KD ratio NRAS/KRAS, class symbols), the “NRAS/KRAS (ratio of KD value with respect to GDP-bound NRAS wild-type protein to KD value with respect to KRAS)” value was “A (a compound having 10 or more and less than 20 is denoted as A)”. Moreover, the dissociation constant Kd in assay [3] (setting [4]) was determined as 0.17 nM.
For `CCO[C@@H]1C[C@H]2C(=O)NC3(CCC3)C(=O)N(C)[C@@H](C3CCCC3)C(=O)N(C)[C@H](C(=O)N(C)CC)CC(=O)N(C)[C@@H](CC(F)F)C(=O)N[C@@H]([C@@H](C)CC)C(=O)N(C)CC(=O)N(C)[C@H]3C/C=C\CCN(C3=O)[C@@H](Cc3ccc(C(F)(F)F)cc3)C(=O)N(C)CC(=O)N[C@@H](CCc3cc(F)c(C(F)(F)F)c(F)c3)C(=O)N2C1` [PP1303], in assay [1] (KD ratio class), the “HRAS/KRAS (ratio of KD value for HRAS to KD value for KRAS)” value is “A (a compound having 10 or more and less than 20 is denoted as A)”. In assay [2] (KD ratio class), the “NRAS/KRAS (ratio of KD value for NRAS to KD value for KRAS)” value is on record as “AA (a compound having 20 or more is denoted as AA)”. The dissociation constant (Kd) in assay [3] (SPR, Single Cycle Kinetics, 1:1 binding model) turned out to be 0.068 nM.
Consider `CCO[C@@H]1C[C@H]2C(=O)NC3(CC(C)(C)C3)C(=O)N(C)[C@@H](C(CC)CC)C(=O)N(C)[C@H](C(=O)N(C)C)CC(=O)N(C)[C@@H](C)C(=O)N[C@@H]([C@@H](C)CC)C(=O)N(C)CC(=O)N(C)[C@H]3C/C=C\CCN(C3=O)[C@@H](Cc3ccc(C)cc3)C(=O)N(C)CC(=O)N[C@@H](CCc3cc(F)c(C(F)(F)F)c(F)c3)C(=O)N2C1` [PP2143], for which, in assay [1], the “HRAS/KRAS (ratio of KD value for HRAS to KD value for KRAS)” value was “A (a compound having 10 or more and less than 20 is denoted as A)”. In addition, in assay [2], the “NRAS/KRAS (ratio of KD value for NRAS to KD value for KRAS)” value was “A (a compound having 10 or more and less than 20 is denoted as A)”. The Kd in assay [3] (SPR, Single Cycle Kinetics) turned out to be 0.31 nM.
For `CCO[C@@H]1C[C@H]2C(=O)NC3(CCC3)C(=O)N(C)[C@@H](C3CCCC3)C(=O)N(C)[C@H](C(=O)N(C)C)CC(=O)N(C)[C@@H](CC3CCCCC3)C(=O)N[C@@H]([C@@H](C)CC)C(=O)N(C)CC(=O)N(C)[C@H]3C/C=C\CCN(C3=O)[C@@H](Cc3ccc(C(F)(F)F)cc3)C(=O)N(C)CC(=O)N[C@@H](CCc3cc(F)c(C(F)(F)F)c(F)c3)C(=O)N2C1` [PP1125, (2S,8S,12R,14S,20S,23S,27S,30S,36S,38Z)-27-(cyclohexylmethyl)-20-cyclopentyl-8-[2-[3,5-difluoro-4-(trifluoromethyl)phenyl]ethyl]-12-ethoxy-N,N,4,19,22,26,32,35-octamethyl-30-[(1S)-1-methylpropyl]-3,6,9,15,18,21,25,28,31,34,42-undecaoxo-2-[[4-(trifluoromethyl)phenyl]methyl]spiro[1,4,7,10,16,19,22,26,29,32,35-undecazatricyclo[34.5.1.0^10,14]dotetracont-38-ene-17,1′-cyclobutane]-23-carboxamide], the “HRAS/KRAS (ratio of KD value for HRAS to KD value for KRAS)” value in assay [1] is “A (a compound having 10 or more and less than 20 is denoted as A)”. Moreover, the “NRAS/KRAS (ratio of KD value for NRAS to KD value for KRAS)” value in assay [2] is “A (a compound having 10 or more and less than 20 is denoted as A)”. In assay [3] (SPR, Single Cycle Kinetics), the Kd amounted to 0.07 nM.
Consider `CCCN1C(=O)CN(C)C(=O)[C@@H]2CCN2C(=O)[C@H](C2CCC2)NC(=O)[C@H](CC(C)C)N(C)C(=O)C[C@@H](C(=O)N2CCOCC2)N(C)C(=O)[C@H](C2CCCC2)N(C)C(=O)C2(CCCC2)NC(=O)[C@@H]2CCCN2C(=O)[C@H](CCc2ccc(C(F)(F)F)c(Cl)c2)NC(=O)CN(C)C(=O)[C@@H]1Cc1ccc(C(F)(F)F)cc1` [PP0305] ([NMeL][Gly(cBu)][Aze][Sar][NPrPhe(4-CF3)][Sar][hPhe(3-Cl-4-CF3)]P[Ac5c][NMeGly(cPent)][NMeD]-Morpholide; lactam N-11), for which, in assay [1], the “HRAS/KRAS (ratio of KD value for HRAS to KD value for KRAS)” value is “C (A compound having a KD ratio of 0.1 or more and less than 3 is denoted as C)”. Besides, the “NRAS/KRAS (ratio of KD value for NRAS to KD value for KRAS)” value in assay [2] is “B (a compound having 3 or more and less than 10 is denoted as B)”. The Kd in assay [3] (setting [4]) stood at 0.96 nM.
Take `CCC[C@H]1C(=O)N[C@@H]([C@@H](C)CC)C(=O)N(C)CC(=O)N(C)[C@H]2C/C=C\CCN(C2=O)[C@@H](Cc2ccc(C(F)(F)F)cc2)C(=O)N(C)CC(=O)N[C@@H](CCc2ccc(C(F)(F)F)c(OC)c2)C(=O)N2C[C@H](OCC)C[C@H]2C(=O)N(C)C2(CCC2)C(=O)N(C)[C@@H](C2CCCC2)C(=O)N(C)[C@H](C(=O)N(C)C)CC(=O)N1C` [PP2312]: the “HRAS/KRAS (ratio of KD value for HRAS to KD value for KRAS)” value in assay [1] was “B (a compound having 3 or more and less than 10 is denoted as B)”. In addition, in assay [2], the “NRAS/KRAS (ratio of KD value for NRAS to KD value for KRAS)” value was “A (a compound having 10 or more and less than 20 is denoted as A)”. Moreover, the dissociation constant Kd in assay [3] (SPR, Single Cycle Kinetics) came to 0.03 nM.
Take `CCCN1C(=O)CN(C)C(=O)CN(CC)C(=O)[C@H]([C@@H](C)CC)NC(=O)[C@H](CC(C)C)N(C)C(=O)C[C@@H](C(=O)N(C)C)NC(=O)[C@H](C2CCCC2)N(C)C(=O)C2(CCC2)NC(=O)[C@@H]2CC(F)(F)CN2C(=O)[C@H](CCc2ccc(C(F)(F)F)c(Cl)c2)NC(=O)CN(C)C(=O)[C@@H]1Cc1ccc(C(F)(F)F)cc1` [PP0370] ([NMeL]I[NEtG][Sar][NPrPhe(4-CF3)][Sar][hPhe(3-Cl-4-CF3)][Pro(4,4-F2)][Ac4c][NMeGly(cPent)]D-NMe2; lactam N-11): the “HRAS/KRAS (ratio of KD value for HRAS to KD value for KRAS)” value in assay [1] was “C (A compound having a KD ratio of 0.1 or more and less than 3 is denoted as C)”. Further, the “NRAS/KRAS (ratio of KD value for NRAS to KD value for KRAS)” value in assay [2] is “B (a compound having 3 or more and less than 10 is denoted as B)”. Further, the dissociation constant (Kd) in assay [3] (setting [4]) came out at 1.5 nM.
For `CCO[C@@H]1C[C@H]2C(=O)NC3(CCC3)C(=O)N(C)[C@@H](C3CCCC3)C(=O)N(C)[C@H](C(=O)N(C)C)CC(=O)N(C)[C@@H](Cc3ccc(C)cc3)C(=O)N[C@@H]([C@@H](C)CC)C(=O)N(C)CC(=O)N(C)[C@H]3CCCCCN(C3=O)[C@@H](Cc3ccc(C(F)(F)F)cc3)C(=O)N(C)CC(=O)N[C@@H](CCc3cc(F)c(C(F)(F)F)c(F)c3)C(=O)N2C1` [PP0943], in assay [1], the “HRAS/KRAS (ratio of KD value for HRAS to KD value for KRAS)” value was “B (a compound having 3 or more and less than 10 is denoted as B)”. Besides, the “NRAS/KRAS (ratio of KD value for NRAS to KD value for KRAS)” value in assay [2] is “B (a compound having 3 or more and less than 10 is denoted as B)”. Further, the Kd in assay [3] (SPR, Single Cycle Kinetics) was found to be 1.1 nM.
